Patent publication US12122821B2, “Regulation of glucose metabolism using anti-CGRP antibodies” (H. LUNDBECK A/S, priority 2013, dated 2024)
“Also recorded” adds a separate entry of the source.

Legend:
[1] = tested on: Zucker diabetic fatty (ZDF) rat; experiment: Fasting blood glucose, plasma insulin, C-peptide and HOMA-IR in ZDF rats (Example 3); assay type: in vivo; conditions: for increase of plasma C-peptide levels / increase of plasma insulin levels: vs vehicle ZDF; for increase of plasma C-peptide levels: NS; for increase of plasma insulin levels: ns
Description: For the groups treated with AB14, the antibody was administered once weekly via the caudal vein (i.v., 5 mL/kg) on days 1, 8, 15, and 22 at two different doses 20 mg/kg/week (groups 3 and 7) or 60 mg/kg/week (groups 4 and 8). All other groups were treated once weekly with vehicle 1 (i.v., 5 mL/kg). The intravenous treatments were performed in the morning on day 1, 8, 15, and 22 while under isoflurane anaesthesia. The volume of administration was individually adapted according to the most recent body weight.
All other groups were treated daily with vehicle 2 (p.o., 5 mL/kg) for 28 days. The most recent body weight was used to calculate the average volume of administration in each group.
A fasting (6 hours on day 0 from 8:00 am to 02:00 pm, and overnight on day 12, 19 and 26 from ˜6:00 pm to ˜8:00 am) was performed before each blood collection. Blood was collected at ˜2:00 pm, from the tip of the tail, on day 0 (before screening, 150 μL, potassium EDTA), and at ˜8:00 am prior to dosing on days 12 (110 μL, potassium EDTA), 19 (150 μL, potassium EDTA) and 26, (110 μL, potassium EDTA).
Fasting blood glucose (glucometers) was measured on days 0, 12, 19, and 26. Fasting plasma insulin, peptide-C (ELISA method), free fatty acids, triglycerides, total cholesterol (colorimetric method), and HDL-cholesterol (phosphotungstate precipitation, colorimetric method) were measured on day 0, and prior to dosing on days 12, 19, and day 26. Non HDL-cholesterol was calculated as total cholesterol—HDL-cholesterol. Fructosamine was measured on days 0, 19 and 28. HbA1c (DCA 2000) was measured on days 0 and 28.

HFD rats = experiment: 2-step hyperinsulinemic-euglycemic clamp in HFD rats (Example 2); assay type: in vivo, rat; conditions: metformin 200 mg/kg/day, vs HFD vehicle
Description: Six-week HFD fed rats were treated for 2 weeks with Ab14, and a 2-step hyperinsulinemic euglycemic clamp was performed to assess insulin sensitivity. A physiological dose of insulin was used during the first step and a pharmacological dose of insulin was used during the second step to assess the effects of […] insulin sensitivity, respectively, under these two conditions.
Body weight and food consumption were measured 3 times per week until 10 days of treatment. HOMA-IR was measured on day 10 and 15. A 2-step clamp (5 mU/kg/min and then 15 mU/kg/min insulin) was performed on day 15 or 16. Glucose Turnover (GTO) was assessed using ^3H-glucose tracer infusion during the clamp procedure.
On day 15 or 16, the 2-step hyperinsulinemic-euglycemic clamp was performed using ^3H-glucose as a tracer (except in the normal chow group), and 5 mU/kg/min insulin infusion from 02:00 pm (T0) to 04:00 pm (T+2 h), followed by 15 mU/kg/min insulin infusion from 04:00 pm to 05:30 pm (t+3.5 h). A glucose solution was infused in parallel and the infusion rate was adjusted to reach the steady state (100±10 mg/dL). Blood glucose was measured from the tip of the tail using glucometers every 10 minutes. Blood was collected (10 μL) regularly from the tip of the tail during the steady states of each step.
The following parameters were assessed: Glucose infusion rate (in all groups); Whole body glucose utilization rate (except in the normal chow group); Hepatic glucose production rate (except in the normal chow group); Whole body glycogen and glycolytic rates (except in the normal chow group).

[2] = tested on: Zucker diabetic fatty (ZDF) rat; experiment: Pancreas insulin and proinsulin content in ZDF rats (Example 3); assay type: in vivo; conditions: day 28, AB14 60 mg/kg, metformin 200 mg/kg/day, alone or combined, vs vehicle
Description: After 2 hours of food restriction (from 8:00 am to 10:00 am) 80 rats from the study were anesthetized on day 28 with isoflurane. Blood was collected (˜3000 μL from abdominal vein, on K2-EDTA) for the determination of AB14 plasma concentrations. Plasma (3 aliquots of ˜200 μL) was kept at −80° C. until testing. The pancreas tissue was then excised. Rats were euthanized by incision of the abdominal vein and aorta.
Each pancreas was divided into 2 parts (longitudinal cut).
Each pancreas sample was homogenized in an acid buffer, and insulin and proinsulin content were measured using ELISA kits in the following groups: […]

[3] = day 12, metformin 200 mg/kg/day
[4] = day 19, metformin 200 mg/kg/day
[5] = day 26, metformin 200 mg/kg/day

## CN(C)C(=N)N=C(N)N [metformin, reference compound]
[1]; [3]
  increase of plasma C-peptide levels: 23%
  increase of plasma insulin levels: 79%
[1]; [4]
  increase of plasma C-peptide levels: 21%
  increase of plasma insulin levels: 55%
[1]; day 19 and 26, metformin 200 mg/kg
  fasting blood glucose, effect: not observed
[1]; [5]
  increase of plasma C-peptide levels: 9%
  increase of plasma insulin levels: 48%
[1]; days 12, 19 and 26, metformin 200 mg/kg/day alone or in combination with AB14, vs vehicle ZDF
  HOMA-IR: increase of HOMA-IR
HFD rats; 5 mU/kg/min insulin, Ab14 treated groups (10, 30, 100 mg/kg)
  GIR (plateau) during the first clamp step: increasing effect upon GIR that was comparatively less in magnitude; also recorded: no effect
HFD rats; 5 mU/kg/min insulin, ns
  increase of mean GIR, first step: 11%
HFD rats; 15 mU/kg/min insulin
  HGP, second step: completely inhibited
  increase of mean GIR, second step: 27%
[2]
  pancreas proinsulin levels: completely prevented reductions
  pancreatic insulin levels: significantly increased
